In patent US12162855B2, “Tetrahydroquinolino derivatives for the treatment of metastatic and chemoresistant cancers” (THE TRUSTEES OF PRINCETON UNIVERSITY, priority 2018, dated 2024):
Read-outs that look alike come from different tables or passages of the source.

Legend:
ALDH1a3 [1] = biological target: T1, ALDH1a3 (Homo sapiens, UniProt P47895); assay: ALDEFLUOR assay in SUM159-M1a-Aldh1a3 cells (flow cytometry); format: cell-based; conditions: for Percent of Cells Positive for ALDEFLUOR at 100 nM / inhibition at 0.1 µM: SUM159-M1a-Aldh1a3 cells, compound at 100 nM; for inhibition at 0.1 µM: read-out: Inhibitory Activity at 100 nM (%); for inhibition of ALDH1a3 activity (FIG. 1A): compounds at 100 nM; for lowest concentration at which inhibitory activity detected ([inh-min], FIG. 1B): threshold at lower bound of two standard deviations of control samples
T1 construct: lentiviral vectors containing either the vector backbone or full-length human Aldh1a3; expressed in transfected cells; host or cells: SUM159-M1a (A1) and SUM159 (A7) breast cancer cells, lentiviral pLex vector, puromycin selection
T1 sequence (P47895 1-512): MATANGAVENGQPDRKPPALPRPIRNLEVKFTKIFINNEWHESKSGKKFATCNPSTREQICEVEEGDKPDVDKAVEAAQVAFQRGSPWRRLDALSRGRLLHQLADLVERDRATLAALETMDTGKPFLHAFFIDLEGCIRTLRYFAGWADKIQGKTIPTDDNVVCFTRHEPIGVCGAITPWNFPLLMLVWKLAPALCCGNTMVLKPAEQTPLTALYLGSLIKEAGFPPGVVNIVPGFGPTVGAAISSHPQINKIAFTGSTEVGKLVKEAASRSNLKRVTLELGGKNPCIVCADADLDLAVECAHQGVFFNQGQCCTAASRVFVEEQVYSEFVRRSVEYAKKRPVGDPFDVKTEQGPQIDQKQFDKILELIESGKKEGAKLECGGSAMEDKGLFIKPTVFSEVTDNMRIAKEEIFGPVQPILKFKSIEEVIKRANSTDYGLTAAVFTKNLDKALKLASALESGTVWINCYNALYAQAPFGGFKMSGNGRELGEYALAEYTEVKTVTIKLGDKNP
Protocol: (§1) Cells were counted, centrifuged and resuspended at 1,000,000 cells/mL in ALDEFLUOR™ buffer (Stemcell Technologies). ALDEFLUOR™ substrate (Stemcell Technologies, 1:200) and test compound or 1 mM DEAB were added to cell suspension and incubated at 37° C. for 45 minutes with vortexing every 15 minutes. Cells were centrifuged and resuspended in ALDEFLUOR™ buffer with DAPI at 5 μg/mL. Samples were analyzed with the BD LSR2 flow cytometry platform. Gating was performed using DEAB as a negative control.
Gating for background fluorescence was performed using 1 millimolar DEAB as a negative control.
The [inh-min] threshold was set at the lower bound of two standard deviations of control samples, while the IC50 threshold was set at 50% of the average of control samples.
High activity was gated at the 99th percentile of cells at a MBE1.5 concentration of 10 nanomolar. The [inh-min] threshold was set at the lower bound of two standard deviations of control samples.
An ALDEFLUOR™ assay was also used to assess the relative activity of several compounds described herein against SUM159-M1a-Aldh1a3 cells. The activity of several compounds in the assay at a concentration of 100 nM is reported in Table 1, along with the chemical structure and compound name associated with each compound.

Aldh1a1 = biological target: T2, Aldh1a1 (Homo sapiens, UniProt P00352); assay: ALDEFLUOR assay in MCF7 cells transduced with human Aldh1a1; format: cell-based; conditions: concentrations below 10 μM
T2 construct: expressed in transfected cells; host or cells: MCF7, lentiviral pLex vector
T2 sequence (P00352 1-501): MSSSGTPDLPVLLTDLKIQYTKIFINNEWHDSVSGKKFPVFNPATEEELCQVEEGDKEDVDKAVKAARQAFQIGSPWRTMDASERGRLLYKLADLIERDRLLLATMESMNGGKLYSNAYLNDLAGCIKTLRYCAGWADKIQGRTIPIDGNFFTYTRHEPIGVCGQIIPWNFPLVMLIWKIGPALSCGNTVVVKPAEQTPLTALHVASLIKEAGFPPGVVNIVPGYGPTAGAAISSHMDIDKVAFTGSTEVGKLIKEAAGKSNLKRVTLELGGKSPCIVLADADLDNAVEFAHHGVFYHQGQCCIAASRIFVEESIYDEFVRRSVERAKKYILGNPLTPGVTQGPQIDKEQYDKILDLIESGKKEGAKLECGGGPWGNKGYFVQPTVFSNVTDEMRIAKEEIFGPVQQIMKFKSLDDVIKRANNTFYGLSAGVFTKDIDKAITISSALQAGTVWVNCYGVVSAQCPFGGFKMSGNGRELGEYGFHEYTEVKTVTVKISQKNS
Protocol: The coding sequences of Aldh1a1, Aldh1a2, Aldh1a3 and Aldh3a1 were cloned from cDNA made from pooled human reference RNA samples. Cloned sequences flanked by Age1 and Xho1 restriction sites were inserted into the pLex lentiviral plasmid. Clones were sequenced and compared against NCBI expressed sequence tags (ESTs) for accuracy. […]. Viruses were collected and filtered at 0.45 μm, then cells were transduced using polybrene (8 μg/mL) for 12 hours, followed by culture with 1 μg/mL puromycin for the duration of experiments. All viral transduction and selection was performed on a cell population-wide basis.
as §1

ALDH1a3 [2] = biological target: T1, ALDH1a3; assay: ALDEFLUOR assay in MCF7 cells transduced with human Aldh1a3; format: cell-based
Protocol: (§2) The coding sequences of Aldh1a1, Aldh1a2, Aldh1a3 and Aldh3a1 were cloned from cDNA made from pooled human reference RNA samples. Cloned sequences flanked by Age1 and Xho1 restriction sites were inserted into the pLex lentiviral plasmid. Clones were sequenced and compared against NCBI expressed sequence tags (ESTs) for accuracy. Viral production of each enzyme was performed by transfection into the 293T packaging cell line using PEI along with PsPax2 and VSVG packaging vectors. Viruses were collected and filtered at 0.45 μm, then cells were transduced using polybrene (8 μg/mL) for 12 hours, followed by culture with 1 μg/mL puromycin for the duration of experiments. All viral transduction and selection was performed on a cell population-wide basis.
as §1
ALDH isoforms 1a1, 1a2, 1a3 and 3a1 were expressed in MCF7 or SUM159 cells, which were subsequently used in an ALDEFLUOR™ assay.

[3] = Toxicity experiments in C57Bl6 mice (IP); format: in vivo
Protocol: All mice were originally ordered from the Jackson Laboratory (Bar Harbor, ME) and breeding was conducted in a specific pathogen-free (SPF) barrier facility. Toxicity experiments were performed on 8-12-week old male and female C57B16 mice. MBE1 was dissolved at 50 mg/mL in DMSO followed by a […] into Kolliphor EL, followed by a 1:5 dilution into PBS to yield a 5 mg/ml MBE1 solution, (10% DMSO, 10% Kolliphor EL, 80% PBS). This was administered via IP injection at ascending doses from 12.5 to 200 mg/kg body mass in a set of 3 mice at 24 h intervals. Body condition score, food uptake, fecal/urine production, behavior and body weight were measured as toxicity readouts. Five mice were then treated every 3 days with 25 mg/kg MBE1 for 18 days.

ALDH1a3 [4] = biological target: T1, ALDH1a3; assay: ALDEFLUOR assay in 293T cells transiently transfected with human Aldh1a3; format: cell-based; conditions: 293T cells transfected with human Aldh1a3
Protocol: as §2, §1

| Structure (SMILES) | IC50 (ALDH1a3 [1]) | Percent of Cells Positive for ALDEFLUOR at 100 nM (ALDH1a3 [1]) | inhibition at 0.1 µM (ALDH1a3 [1]) | inhibition of ALDH1a3 activity (FIG. 1A) (ALDH1a3 [1]) | lowest concentration at which inhibitory activity detected ([inh-min], FIG. 1B) (ALDH1a3 [1]) | inhibition of Aldh1a1 activity (FIG. 2A) (Aldh1a1) | inhibition of Aldh1a3 activity (FIG. 2A) (ALDH1a3 [2]; MCF7 cells) | chronic toxicity (body condition score, food uptake, fecal/urine production, behavior, body weight) ([3]; 25 mg/kg every 3 days for 18 days) | acute toxicity (body condition score, food uptake, fecal/urine production, behavior, body weight) ([3]; ascending doses 12.5 to 200 mg/kg at 24 h intervals) | IC50 (ALDH1a3 [1]; dose titration, IC50 threshold at 50% of average of control samples, read-out: IC50 (percentage of ALDEFLUOR-positive cells, FIG. 1B)) | inhibition of highly ALDH1a3-active cells (high ALDH percentage, FIG. 1C) (ALDH1a3 [1]; dose titration, high activity gated at 99th percentile at 10 nanomolar MBE1.5) | isoform specificity, percentage of ALDEFLUOR-positive MCF7 cells (FIG. 13B) (ALDH1a3 [2]; MCF7 cells expressing ALDH 1a1, 1a2, 1a3 or 3a1) | inhibition of Aldh1a3 activity (FIG. 2B) (ALDH1a3 [4]) |
| --- | --- | --- | --- | --- | --- | --- | --- | --- | --- | --- | --- | --- | --- |
| CCc1cnccc1C(=O)Nc1cc2c(cc1F)NC(=O)CC2 [MBE1, 3-ethyl-N-(7-fluoro-2-oxo-1,2,3,4-tetrahydroquinolin-6-yl)isonicotinamide] | 8 to 10 nM | 0.73% | 99% | high-affinity compounds for the inhibition of ALDH1a3 activity | 2 nM | does not inhibit | effective at inhibiting Aldh1a3 activity | Neither experiment showed any indication of either acute or chronic toxicity | Neither experiment showed any indication of either acute or chronic toxicity | – | – | – | – |
| CCc1ccccc1C(=O)Nc1cc2c(cc1F)NC(=O)CC2 [MBE1.5, 2-ethyl-N-(7-fluoro-2-oxo-1,2,3,4-tetrahydroquinolin-6-yl)benzamide] | – | 0.03% | 100% | high-affinity compounds for the inhibition of ALDH1a3 activity | 2 nM | – | – | – | – | 8 to 10 nM | more adept at inhibiting highly ALDH1a3-active cells than MBE1 | specifically inhibits ALDH1a3 at concentrations below 10 μM | effective at inhibiting Aldh1a3 activity |
